Measurements reported in patent publication US9216181B2 (Southwest Research Institute, priority 2011, dated 2015).

Experiments:
BMP-2 [1] = test: Real time PCR of BMP-2 gene expression in human MSC (Cells-to-Ct); format: cell-based; details: BMP-2 mRNA, hMSC, 5-10 μM, 24 hours, vs untreated; positive control compounds (Table 1)
BMP-2 [2] = test: BMP-2 fold change of JHU library compounds, confirmed by qPCR; format: cell-based, human; details: non-treated = 1.00
Text: To further verify the technique, a 2T3 mouse pre-osteoblast cell line derived from calvaria courtesy of Dr. Steve Harris, UTHSCSA, was utilized to visually screen the compounds of the BIOMOL library and JHU libraries, purchased from John Hopkins University including 2387 compounds (solution in wells). Specifically, Murine 2T3 were thawed from one frozen cryovial and re-seeded into two T-75 tissue culture flasks grown in Alpha MEM with 10% FBS, Glutamine, and Pen/Strip antibiotics. Cells were incubated in a humidified 37° C. under 5% CO2 for 48 hours or when cells reached 80% confluence. After reaching confluency, the 2T3 were trypsinized and resuspended in pre-warm growth media to a cell density of 5×10^4 cells/mL. Approximately 100 uL of cell suspension was seeded to a 96 well plate to give a final 5,000 cells per well. Plate was incubated overnight at 37° C. and spent media was aspirated and replace with 100 uL of growth media with 5-10 uM of presumptive drug compounds. A set of controls were untreated and treated with 10 uM of Lovastatin to be used as a visual reference morphological screening.
Human mesenchymal stem cells (LONZA, Catalog PT2501) were maintained in Mesenchymal stem cells basal media (MSCBM CAT#PT-3238). Early passage cells were plated in triplicate at 2×10^4 cells/cm^2 using six well tissue culture plates and grown in humidified 5% CO2 at 37° C. for 24 hours. Spent media was replaced by assay media of drugs to be tested in same media as above at 10 μM final concentration. Untreated cells were used as the control group. […] RNA concentration and integrity was assessed by absorbance 260/280 and electrophoresis in 1% Agarose with formaldehyde loading dye. For TaqMan gene expression, cDNA was synthesized from 2 μg of total RNA using the High Capacity cDNA Reverse Transcription Kit (Applied Biosystems, Cat. 4368814). The resulting cDNA were diluted 1:100 for TaqMan and amplified by real-time quantitative PCR. […] A cocktail of universal master mix (Applied Biosystems, 4369016) were prepared individually for both set of primers which contained Taq Polymerase, dNTPs, and buffer. Template cDNA's were added separately to respective individual wells in triplicate samples. The PCR were performed on StepOne Plus Real Time System instrument (Applied Biosystems). The amplification program consisted of 1 cycle of 95° C. with 10 minute hold (hot start) followed by 50 cycles of 95° C. with 15 second annealing hold and 1 minute 60° C. specified acquisition hold. […] Change in gene expression was determined by the expression ΔΔCt relative method.
Included in the tables is the target or common medical use for each compounds.

BMP2 = test: Quantitative PCR (TaqMan, ΔΔCt) of BMP2 in human mesenchymal stem cells; format: cell-based; details: Homo sapiens, Mesenchymal stem cells; BMP2 mRNA, hMSC, 10 μM, vs untreated, 18S reference; positive control compounds (Table 1); read-out: q-PCR Fold increase
C3H10T1/2 cells = test: Visual observation of morphological differentiation of C3H10T1/2 MSC; format: cell-based, mouse; details: enhanced medium withdrawn before addition
Description: The C3H10T1/2 cells were grown in an enhanced growth medium of BGjb (Irvine Scientific, Santa Ana, Calif.).

CC[C@H](C)C(=O)O[C@H]1C[C@@H](C)C=C2C=C[C@H](C)[C@H](CC[C@@H]3C[C@@H](O)CC(=O)O3)[C@H]21 [Lovastatin]
RT PCR Fold increase (BMP-2 [1]): 59.9 fold
fold induction at 10 µM (BMP-2 [2]; Homo sapiens, read-out: Fold change (BMP-2), control compounds at 10 μM): 18
Fold change (BMP-2) (BMP-2 [2]; JHU library compounds): 182.00 fold
fold induction at 10 µM (BMP2): 10.7
morphological changes by visual observation (C3H10T1/2 cells): generated more elongated looking cells with slowed cell proliferation
